Test results: US6352703B1, “Compositions and methods for detecting and killing termites” (Board of Supervisors of Louisiana State University and …, priority 1997, dated 2002)

Test system: Mucor spp. fungus
Assay: Antifungal filter paper disk test, trial 1 (Sabouraud dextrose agar)
Assay type: cell-based
Method: Mucor was isolated from a Formosan termite nest in our laboratory, a nest originally collected from a cottonwood tree in New Orleans, La. The fungus comprised a white mat that covered large areas of the nest that had been exposed to air and water. Fungus was scraped from the nest and suspended in distilled, de-ionized water with a Pasteur pipette. This suspension was streaked on Sabouraud dextrose agar (“SDA”) (Difco Laboratories, Detroit, Mich.) in 100×15 mm plates containing 20 mL SDA. Pure cultures were obtained from individual colonies on these plates as needed. Cultures were maintained on SDA plates in a 27° C. incubator without light until used.
Filter paper disks (Whatman #1, 1.5 cm) were treated with naphthalene, butylated hydroxytoluene (BHT), dioctyl phthalate, or adipic dioctyl ester, at rates of 2 μg, 20 μg, or 200 μg, dissolved in 100 μL hexane. Controls were treated with hexane alone. For each treatment, just prior to testing for antifungal properties, 1 mL of the hexane solution and ten filter paper disks were placed in a vial, and N2 was used to evaporate the hexane.
A suspension was prepared by scraping Mucor conidia (spores) from the culture plates, and mixing into distilled, deionized water with a Pasteur pipette. A thin layer of this suspension was spread over the surface of each of 130 SDA plates by placing each plate onto an inoculation turntable (Fisher Scientific, Hampton, N.H.), pipetting 0.2 mL of the suspension into the center of the plate, spinning the turntable, and spreading the suspension onto the agar with a bent glass rod. The plates were allowed to dry for two hours. A treated filter paper disk was then placed in the center of each plate (10 plates/treatment), and the plates were incubated at 27° C. The extent to which each filter paper disk was covered by fungus was determined by visual inspection (by the method described in greater detail below) after four, five, and six days.
Fungal growth on each filter paper disk was recorded by making tracings of the disks, inking in areas with visible fungal growth. The fraction of each disk covered by fungus was measured by making photocopy enlargements of these drawings, cutting out the enlarged disks, weighing the entire circle, cutting out the inked areas of the circle (corresponding to fungal growth), and weighing the latter. The fraction of each circle covered with fungus was then calculated as the ratio of these weights. (The weight of the photocopy toner was negligible.)
Coverage of filter paper disks was analyzed by the ANOVA procedure (SAS Institute, Version 6.11, Cary, N.C.). Tukey's Studentized Range (HSD) Test was used for comparison of mean separations (α=0.05).

Row | SMILES | Fraction Covered, Day 4 (mean percentage of filter paper disk surface covered by fungus) (trial 1, rate 2 μg per disk) [%] | Fraction Covered, Day 5 (mean percentage of filter paper disk surface covered by fungus) (trial 1, rate 2 μg per disk) [%] | Fraction covered, Day 6 (mean percentage of filter paper disk surface covered by fungus) (trial 1, rate 2 μg per disk) [%] | Fraction Covered, Day 4 (mean percentage of filter paper disk surface covered by fungus) (trial 1, rate 20 μg per disk) [%] | Fraction Covered, Day 5 (mean percentage of filter paper disk surface covered by fungus) (trial 1, rate 20 μg per disk) [%] | Fraction covered, Day 6 (mean percentage of filter paper disk surface covered by fungus) (trial 1, rate 20 μg per disk) [%] | Fraction Covered, Day 4 (mean percentage of filter paper disk surface covered by fungus) (trial 1, rate 200 μg per disk) [%] | Fraction Covered, Day 5 (mean percentage of filter paper disk surface covered by fungus) (trial 1, rate 200 μg per disk) [%] | Fraction covered, Day 6 (mean percentage of filter paper disk surface covered by fungus) (trial 1, rate 200 μg per disk) [%]
1 | CCCCCCCCOC(=O)CCCCC(=O)OCCCCCCCC [Adipic dioctyl ester, adipic dioctyl ester] | 44 | 83 | 94 | 20 | 80 | 62 | 20 | 75 | 91
2 | CCCCCCCCOC(=O)c1ccccc1C(=O)OCCCCCCCC [Dioctyl phthalate, dioctyl phthalate] | 67 | 78 | 89 | 32 | 49 | 88 | 57 | 69 | 82
